Series [1] has as its system B16F10 melanoma tumor cell line. Put plainly: Cell death by AnnexinV/DAPI staining 48 hours after drug treatment. The format is cell-based, mouse. The settings on record: for cell death by DAPI and Annexin V staining: at the concentrations used. As to the method:
For assessment of cell death, floating and attached cells were harvested after 48 hours of treatment with the indicated chemotherapeutic drugs. Attached cells were detached using 5 mM EDTA in PBS. The recovered cells were centrifuged at 250×g for 5 minutes, washed once in PBS containing 0.9 mM Ca2+ and 0.5 mM Mg2+ and then stained with AnnV-FITC for 15 minutes in Annexin binding buffer at room temperature according to the manufacturer's protocol (Biolegend). Cells were co-stained with DAPI at a final concentration of 1 μg/ml for 2 minutes in Annexin binding buffer, brought to a final volume of 500 ul using PBS containing 0.9 mM Ca2^+ and 0.5 mM Mg2^+ and analyzed by flow cytometry.
To identify how DNA-damaging chemotherapy could be optimally used to enhance anti-tumor immune function, cytotoxicity assays were performed using the B16F10 melanoma tumor cell line expressing ovalbumin (B16-Ova). Cells were treated with clinically used chemotherapeutic agents followed by assaying for cell death by DAPI and Annexin V staining 48 hours later.

Series [2] in a line: Cell viability (survival) assay with CellTiter-Glo, 48 hours. The format is cell-based, mouse. As to conditions: mouse, B16F10 melanoma tumor cells, 48 hours, normalized to DMSO-treated control cells. The procedure:
(§1) For assays of survival, 15,000 cells were plated per well in a 96-well plate in 100 μl media with 5 replicates per condition. Wells along the four edges of the plate were not used. Following cell attachment, the indicated drugs were added in an equal volume of media, and incubated for an additional 48 hours. The media was then removed and replaced with 100 ul of fresh media at room temperature. Following a 30 minute incubation at room temperature, 50 μl of CellTiter-Glo reagent was added, followed by 2 minutes of gentle mixing. The plate was incubated at room temperature for an additional 10 minutes. 100 μl of supernatant was transferred to a 96-well white opaque plate and luminescence was read on a Tecan microplate reader. Values were normalized to those of DMSO-treated control cells.
(In general: ATP-based viability assays read luminescence as a measure of living cells.)

Series [3] relates to B16-Ova cells. Put plainly: In vitro cross presentation assay: drug-treated B16-Ova cells, BMDC and OT-1 CD8+ T-cells, IFN-γ+ T-cells by flow cytometry. The format is cell-based, mouse. The procedure: (§2) B16-Ova or MC-38 Ova cells were treated with various doses of chemotherapeutic drugs for 24 h followed by extensive washing in IMDM (10% FBS, P/S). Subsequently 1×10^6 treated cells were co-cultured with 2.5×10^5 BMDC per well of a 24-well plate for each condition tested. After 24 hours of co-culture, supernatants were removed from each well and the BMDC washed 2-3 times in T-cell media (RPMI containing 10% FBS, 20 mM HEPES, 1 mM sodium pyruvate, 55 uM b-mercaptoethanol, 2 mM L-glutamine, nonessential amino acids and antibiotics). CD8+OT-I T-cells isolated from spleens of OT-I mice were then co-cultured with the BMDC at 125,000 T-cells per well to achieve an effector to target ratio of 0.5. Where indicated, BMDC and/or T-cells were also exposed to chemotherapy drugs. After a 12-15 h incubation, IFN-g producing T-cells were identified and quantified by intra-cellular cytokine staining and flow cytometry using a BD LSR II or Fortessa flow cytometer. Cells were first gated for CD3 expression, then re-gated for CD8 and IFNg expression.
An experimental system was developed to assess dendritic cell-mediated T-cell priming using the B16-Ova cells, in combination with primary bone-marrow derived dendritic cells (BMDC) and OT-I CD8+ T-cells expressing a TCR transgene that specifically recognizes the Ova-derived peptide […] (SEQ ID NO:1) in the context of H2-Kb (OT-1) (Clarke, et al., Immunol Cell Biol., 78(2):110-7 (2000); Hogquist, et al., Cell, 76(1):17-27 (1994)). […] The treated B16-Ova cells/BMDC co-culture was then incubated with purified CD8+ T-cells obtained from the spleens of OT-1 mice, and the appearance of IFNg+CD8 T-cells was measured 12-15 hours later by intracellular staining and subsequent quantification using flow cytometry.
(In general: Flow cytometry measures light scatter and fluorescence of single cells or particles in a stream.)

The subject of series [4] is MC-38-Ova cells. Put plainly: In vitro cross presentation assay: drug-treated MC-38-Ova cells, BMDC and OT-1 CD8+ T-cells. The series is classed as cell-based, mouse. The procedure:
as §2

Series [5] concerns B16-Ova cells. Put plainly: HMGB1 in cell culture media by ELISA. The format is cell-based, mouse. The settings on record: for HMGB1 (ng/ml) MEAN: culture media 24-48 hours after treatment. As to the method:
Cell-free cell culture media was then analyzed by ELISA for HMGB1 according to the manufacturer's protocol.
For orientation: ELISA stands for enzyme-linked immunosorbent assay.

Series [6] deals with B16-Ova cells. Put plainly: ATP levels in cell-free culture media by CellTiter-Glo. The settings on record: for ATP (nM) MEAN: culture media 24-48 hours after treatment. The series is classed as cell-based, mouse. The procedure: For measurement of ATP levels, cell-free culture media obtained as above was analyzed by CellTiter-Glo according to the manufacturer's protocol. Values were converted to ATP concentrations using a standard curve generated using pure ATP.

Series [7] relates to p38MAPK. In words: Western blotting of cell lysates with anti-phospho-p38 antibody. The series is classed as cell-based, mouse. As to conditions: B16-Ova cells.
Series [8] has as its system CT26 mouse colon cancer cells. As to conditions: previously reported; cited from earlier work.
For series [9], the system named is B16-Ova cells. Put plainly: Calreticulin surface exposure by flow cytometry. As to conditions: for CALR (%): 24 hours after treatment, representative experiment.
In series [10] the test system is B16F10 melanoma tumor cell line. In words: Cell viability (survival) assay with CellTiter-Glo, 48 hours. The format is cell-based, mouse. The settings on record: at the concentrations used. The procedure: as §1
Setting [11] is: Mus musculus, B16-F10, 48 hours, read-out: AnnV+DAPI+ (%) Mean.
The mark [12] stands for this setting: Mus musculus, B16-F10, 48 hours, read-out: AnnV+DAPI− (%) Mean.
[13] abbreviates: Mus musculus, B16-F10, 48 hours, read-out: AnnV−DAPI+ (%) Mean.
Setting [14] is: Mus musculus, B16-F10, 48 hours, read-out: AnnV−DAPI− (%) Mean.

Like-named read-outs stand apart in the source and are kept apart here.

Consider `COc1cccc2c1C(=O)c1c(O)c3c(c(O)c1C2=O)C[C@@](O)(C(=O)CO)C[C@@H]3O[C@H]1C[C@H](N)[C@H](O)[C@H](C)O1` [Dox, doxorubicin], for which, in series [1] (10 μM and 50 μM), the cell death result is “high levels of cell death”. Moreover, the “cell death by DAPI and Annexin V staining” value in [1] (48 hours) is “caused varying extents of apoptotic and non-apoptotic cell death”. Besides, the cytotoxicity at 10 µM in series [1] (Mus musculus, B16-F10, 10 uM, 48 hours, read-out: AnnV+DAPI+ (%) Mean) stood at 48%; in series [1] (Mus musculus, B16-F10, 10 uM, 48 hours, read-out: AnnV+DAPI− (%) Mean), 31.6%; in series [1] (Mus musculus, B16-F10, 10 uM, 48 hours, read-out: AnnV−DAPI+ (%) Mean), 0.04%. Moreover, the viability at 10 µM in series [1] (Mus musculus, B16-F10, 10 uM, 48 hours, read-out: AnnV−DAPI− (%) Mean) is 20.4%. Besides, the cytotoxicity at 50 µM worked out at 52.1% in series [1] (Mus musculus, B16-F10, 50 uM, 48 hours, read-out: AnnV+DAPI+ (%) Mean); 27.1% in series [1] (Mus musculus, B16-F10, 50 uM, 48 hours, read-out: AnnV+DAPI− (%) Mean); 0.04% in [1] (Mus musculus, B16-F10, 50 uM, 48 hours, read-out: AnnV−DAPI+ (%) Mean). In series [1] (Mus musculus, B16-F10, 50 uM, 48 hours, read-out: AnnV−DAPI− (%) Mean), the viability at 50 µM came to 20.8%. In series [2] (10 uM), this compound registered a viability at 48 h, 10 µM of 0.505%. This compound displayed a viability at 48 h, 50 µM in [2] (50 uM) of 0.126%. Moreover, the activating cells entry is reported as “effective at activating cells” in series [3] (0.5 μM and 1.0 μM); “not effective at activating cells” in series [3] (10 μM and 50 μM). The “inducing DC-mediated IFN-γ in T-cells” value in series [3] (10 and 50 uM (Table 3, Table 4)) was “ineffective”. The “% CD3+CD8+IFN-γ+ T-cells MEAN” value in series [3] (B16-Ova cells treated with 10 uM for 24 h) came to 0.13%; in [3] (B16-Ova cells treated with 50 uM for 24 h) it was 0.28%; in [4] (MC-38-Ova cells treated with 10 uM for 24 h), 1.217%; in series [4] (MC-38-Ova cells treated with 50 uM for 24 h) it was 0.08667%. Besides, the “IFN-gamma production in CD8+ T-cells” value in series [3] (specific doses) is “promote IFN-gamma production in CD8+ T-cells”. Also, the “HMGB1 (ng/ml) MEAN” value in [5] (10 uM) is 77.83 ng/mL; in series [5] (50 uM), 57.75 ng/mL. The “HMGB1 release into the media” value in series [5] (24-48 hours post-treatment window) was “high levels of HMGB1 release”. In addition, the results for the “ATP (nM) MEAN” value in [6] (10 uM) and in [6] (50 uM) were 1.11 nM and 0.83 nM, respectively. In addition, the ATP release result in series [6] (after 24 hours of treatment) was “Substantial ATP release”. Also, the p38MAPK activation entry in series [7] is “p38MAPK activation”. Moreover, the “immunogenic cell death / calreticulin exposure” value in [8] is given as “induce calreticulin exposure”. Besides, the “CALR (%)” value in series [9] (10 uM) is 4.97%; in series [9] (50 uM), 2.82%. In series [9] (24 hours of drug exposure), the “level of externalized calreticulin” value is “lowest levels”.

As for `CCc1c2c(nc3ccc(OC(=O)N4CCC(N5CCCCC5)CC4)cc13)-c1cc3c(c(=O)n1C2)COC(=O)[C@]3(O)CC` [Iri, irinotecan], the cytotoxicity at 0.05 µM in series [1] (Mus musculus, B16-F10, 50 nM, 48 hours, read-out: AnnV+DAPI+ (%) Mean) worked out at 3.79%; in [1] (Mus musculus, B16-F10, 50 nM, 48 hours, read-out: AnnV+DAPI− (%) Mean), 0.36%; in series [1] (Mus musculus, B16-F10, 50 nM, 48 hours, read-out: AnnV−DAPI+ (%) Mean) it was 1.87%. Moreover, the viability at 0.05 µM in series [1] (Mus musculus, B16-F10, 50 nM, 48 hours, read-out: AnnV−DAPI− (%) Mean) is 94%. Further, the cytotoxicity at 0.25 µM in [1] (Mus musculus, B16-F10, 250 nM, 48 hours, read-out: AnnV+DAPI+ (%) Mean) was 5.06%; in [1] (Mus musculus, B16-F10, 250 nM, 48 hours, read-out: AnnV+DAPI− (%) Mean), 0.54%; in series [1] (Mus musculus, B16-F10, 250 nM, 48 hours, read-out: AnnV−DAPI+ (%) Mean) it was 1.63%. For the same compound, the viability at 0.25 µM in series [1] (Mus musculus, B16-F10, 250 nM, 48 hours, read-out: AnnV−DAPI− (%) Mean) amounted to 92.8%. The cytotoxicity at 1 µM in series [1] (setting [11]) was found to be 6.38%; in series [1] (setting [12]) it was 1.74%; in [1] (setting [13]), 0.89%. Also, the viability at 1 µM in series [1] (setting [14]) was 91%. The compound further came in with a viability at 48 h, 0.25 µM in series [2] (0.25 uM) of 99.8%. Also, the viability at 48 h, 1 µM in [2] was 97.9%. In addition, in series [2] (.05 uM), the viability at 48 h, 0.05 uM stood at 96.8%. The growth arrest result in series [10] was “caused some degree of growth arrest”.

As for `CC(=O)O[C@H]1C(=O)[C@@]2(C)[C@H]([C@H](OC(=O)c3ccccc3)[C@]3(O)C[C@H](OC(=O)[C@H](O)[C@@H](NC(=O)c4ccccc4)c4ccccc4)C(C)=C1C3(C)C)[C@]1(OC(C)=O)CO[C@@H]1C[C@@H]2O` [Pac, paclitaxel], the “cell death by DAPI and Annexin V staining” value in series [1] (48 hours) is “did not induce substantial amounts of cell death”. For the same compound, the cytotoxicity at 0.2 µM in series [1] (Mus musculus, B16-F10, 200 nM, 48 hours, read-out: AnnV+DAPI+ (%) Mean) was 4.79%; in [1] (Mus musculus, B16-F10, 200 nM, 48 hours, read-out: AnnV+DAPI− (%) Mean), 7.2%; in series [1] (Mus musculus, B16-F10, 200 nM, 48 hours, read-out: AnnV−DAPI+ (%) Mean) it was 2.18%. Further, the viability at 0.2 µM in series [1] (Mus musculus, B16-F10, 200 nM, 48 hours, read-out: AnnV−DAPI− (%) Mean) came out at 85.8%. Moreover, the cytotoxicity at 1 µM in series [1] (setting [11]) came to 2.98%; in series [1] (setting [12]), 3.03%; in series [1] (setting [13]), 2.79%. For the same compound, in [1] (setting [14]), the viability at 1 µM is 91.2%. This compound also yielded a viability at 48 h, 0.2 µM in [2] (0.2 uM) of 69.8%. In [2], this compound yielded a viability at 48 h, 1 µM of 74%. The growth arrest entry in series [10] was “caused some degree of growth arrest”.

The values above are taken from patent US20210154281A1, “CELL-BASED CANCER VACCINES AND CANCER THERAPIES” (Massachusetts Institute of Technology, priority 2019, published 2021).
